US8404679B2, “Pyrrolidine derivatives as NK2 receptor antagonists” (Hoffmann-La Roche Inc., priority 2008, dated 2013)

Molecular target: T1, human NK2 receptor (Homo sapiens, UniProt P21452)
T1 construct: purchased Perkin Elmer biosignal Inc. 6110510
T1 sequence (P21452 1-398): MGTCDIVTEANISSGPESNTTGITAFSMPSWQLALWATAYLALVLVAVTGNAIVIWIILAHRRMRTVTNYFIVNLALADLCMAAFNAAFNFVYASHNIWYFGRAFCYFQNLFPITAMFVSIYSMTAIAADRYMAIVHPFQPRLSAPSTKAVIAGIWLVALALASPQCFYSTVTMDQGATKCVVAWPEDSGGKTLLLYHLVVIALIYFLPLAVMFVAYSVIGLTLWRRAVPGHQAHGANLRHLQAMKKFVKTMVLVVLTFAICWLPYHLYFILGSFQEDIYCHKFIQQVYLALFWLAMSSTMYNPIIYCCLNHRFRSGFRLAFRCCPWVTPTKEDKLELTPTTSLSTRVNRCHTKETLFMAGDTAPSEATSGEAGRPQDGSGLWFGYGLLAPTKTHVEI
Assay: [3H]SR48968 competition binding assay
Conditions: [3H]SR48968 displacement, membranes of CHO cells stably expressing recombinant human NK2 receptor; Ki from IC50 by Cheng-Prussoff
Method: [^3H]SR48968 Competition Binding Assay
hNK2 receptor binding experiment were performed using [^3H]SR48968 (Catalog No. TRK398, specific activity: 27.0 Ci/mmol, Amersham, GE Healthcare UK limited, Buckinghamshire, UK) and membrane isolated from CHO cells stably expressing recombinant human NK2 receptor (product No. 6110510, Perkin Elmer biosignal Inc., Shelton, Conn., USA). After thawing, the membrane homogenates were centrifuged at 48,000×g for 10 min at 4° C., the pellets were resuspended in the 50 mM Tris-HCl, 3 mM MnCl2, 4 μg/mL Chymostatin, 0.04% BSA binding buffer at pH 7.4 to a final assay concentration of 6.5 μg protein/well. For inhibition experiments, membranes were incubated with [^3H]SR48968 at a concentration equal to KD value of radioligand and 10 concentrations of the inhibitory compound (0.0003-10 μM) (in a total reaction volume of 500 μl) for 75 min at room temperature (RT). At the end of the incubation, membranes were filtered onto unitfilter (96-well white microplate with bonded GF/C filter preincubated 1 h in 0.3% polyethylenimine, Packard BioScience, Meriden, Conn.) with a Filtermate 196 harvester (Packard BioScience) and washed 4 times with ice-cold 50 mM Tris-HCl, pH 7.4 buffer. Nonspecific binding was measured in the presence of 10 μM 1-{2-[(R)-3-(3,4-dichloro-phenyl)-1-(3,4,5-trimethoxy-benzoyl)-pyrrolidin-3-yl]-ethyl}-4-phenyl-piperidine-4-carboxylic acid amide. The radioactivity on the filter was counted (5 min) on a Packard Top-count microplate scintillation counter with quenching correction after addition of 45 μl of microscint 40 (Canberra Packard S. A., Zürich, Switzerland) and shaking for 1 h. Inhibition curves were fitted according to the Hill equation: y=100/(1+(x/IC50)^nH), where nH=slope factor using Excel-fit 4 software (Microsoft). IC50 values were derived from the inhibition curve and the affinity constant (Ki) values were calculated using the Cheng-Prussoff equation Ki=IC50/(1+[L]/KD) where [L] was the concentration of radioligand and KD was its dissociation constant at the receptor, derived from the saturation isotherm.

Q: How did the Ki turn out when `COc1ccc(C(=O)N(C)[C@@H]2CN(C(=O)N3CCN(S(C)(=O)=O)CC3)C[C@H]2c2ccc(Cl)cc2)cc1C(F)(F)F` (racemic) [Example 6, rac-N-[(3S,4R)-4-(4-Chloro-phenyl)-1-(4-methanesulfonyl-piperazine-1-carbonyl)-pyrrolidin-3-yl]-4-methoxy-N-methyl-3-trifluoromethyl-benzamide] was run?
A: The Ki was 10.7 nM.

Q: For `CN(C(=O)c1cccc(C(F)(F)F)c1)[C@@H]1CN(C(=O)N2CCN(S(C)(=O)=O)CC2)C[C@H]1c1ccc(Cl)cc1` (racemic) [Example 7, rac-N-[(3S,4R)-4-(4-Chloro-phenyl)-1-(4-methanesulfonyl-piperazine-1-carbonyl)-pyrrolidin-3-yl]-N-methyl-3-trifluoromethyl-benzamide], which Ki is on record?
A: Its Ki is 33.9 nM.

Q: `COc1ccc(C(=O)N(C)[C@@H]2CN(C(=O)N3CCN(S(C)(=O)=O)CC3)C[C@H]2c2ccc(Cl)c(Cl)c2)cc1C(F)(F)F` (racemic) [Example 8, rac-N-[(3S,4R)-4-(3,4-Dichloro-phenyl)-1-(4-methanesulfonyl-piperazine-1-carbonyl)-pyrrolidin-3-yl]-4-methoxy-N-methyl-3-trifluoromethyl-benzamide] was tested. Which Ki did it give?
A: Its Ki is 2.33 nM.

Q: For `CN(C(=O)c1ccccc1)[C@@H]1CN(C(=O)N2CCN(S(C)(=O)=O)CC2)C[C@H]1c1ccc(Cl)c(Cl)c1` (racemic) [Example 9, rac-N-[(3S,4R)-4-(3,4-Dichloro-phenyl)-1-(4-methanesulfonyl-piperazine-1-carbonyl)-pyrrolidin-3-yl]-N-methyl-benzamide], which Ki is on record?
A: Its Ki is 86.9 nM.

Q: How did the Ki turn out when `CN(C(=O)c1ccc(F)cc1)[C@@H]1CN(C(=O)N2CCN(S(C)(=O)=O)CC2)C[C@H]1c1ccc(Cl)c(Cl)c1` (racemic) [Example 10, rac-N-[(3S,4R)-4-(3,4-Dichloro-phenyl)-1-(4-methanesulfonyl-piperazine-1-carbonyl)-pyrrolidin-3-yl]-4-fluoro-N-methyl-benzamide] was run?
A: The Ki was 28.8 nM.

Q: How did the Ki turn out when `CN(C(=O)c1cccc(Cl)c1)[C@@H]1CN(C(=O)N2CCN(S(C)(=O)=O)CC2)C[C@H]1c1ccc(Cl)c(Cl)c1` (racemic) [Example 11, rac-3-Chloro-N-[(3S,4R)-4-(3,4-dichloro-phenyl)-1-(4-methanesulfonyl-piperazine-1-carbonyl)-pyrrolidin-3-yl]-N-methyl-benzamide] was run?
A: Its Ki is 14.3 nM.

Q: With `CN(C(=O)c1ccc(Cl)cc1)[C@@H]1CN(C(=O)N2CCN(S(C)(=O)=O)CC2)C[C@H]1c1ccc(Cl)c(Cl)c1` (racemic) [Example 12, rac-4-Chloro-N-[(3S,4R)-4-(3,4-dichloro-phenyl)-1-(4-methanesulfonyl-piperazine-1-carbonyl)-pyrrolidin-3-yl]-N-methyl-benzamide] as the molecule, how does the Ki read?
A: The Ki was 2.75 nM.

Q: How did the Ki turn out when `CN(C(=O)c1ccc(C#N)cc1)[C@@H]1CN(C(=O)N2CCN(S(C)(=O)=O)CC2)C[C@H]1c1ccc(Cl)c(Cl)c1` (racemic) [Example 13, rac-4-Cyano-N-[(3S,4R)-4-(3,4-dichloro-phenyl)-1-(4-methanesulfonyl-piperazine-1-carbonyl)-pyrrolidin-3-yl]-N-methyl-benzamide] was run?
A: Its Ki is 23.7 nM.

Q: `CCc1ccc(C(=O)N(C)[C@@H]2CN(C(=O)N3CCN(S(C)(=O)=O)CC3)C[C@H]2c2ccc(Cl)c(Cl)c2)cc1` (racemic) [Example 14, rac-N-[(3S,4R)-4-(3,4-Dichloro-phenyl)-1-(4-methanesulfonyl-piperazine-1-carbonyl)-pyrrolidin-3-yl]-4-ethyl-N-methyl-benzamide] was tested. Which Ki did it give?
A: Its Ki is 1.17 nM.

Q: How did the Ki turn out when `CN(C(=O)c1cccc(C#N)c1)[C@@H]1CN(C(=O)N2CCN(S(C)(=O)=O)CC2)C[C@H]1c1ccc(Cl)c(Cl)c1` (racemic) [Example 15, rac-3-Cyano-N-[(3S,4R)-4-(3,4-dichloro-phenyl)-1-(4-methanesulfonyl-piperazine-1-carbonyl)-pyrrolidin-3-yl]-N-methyl-benzamide] was run?
A: The Ki was 65.2 nM.
